In US20240033236A1, “METHODS OF TREATING HERPES VIRAL INFECTION WITH 4-PHENYLBUTYRATE (PBA) OR A PHARMACEUTICALLY ACCEPTABLE SALT THEREOF” (THE BOARD OF TRUSTEES OF THE UNIVERSITY OF ILLINOIS, priority 2020, published 2024):
Entries after “also recorded” stand apart in the source; their conditions may differ.

Key:
[1] = in vivo, iv; cited from earlier work
[2] = system: HSV-1 McKrae; assay: Murine HSV-1 encephalitis model (intranasal infection); assay type: in vivo; details: BALB/C mice, intranasal HSV-1 McKrae, compared with untreated
[3] = system: HSV-1; assay: Plaque assay of HSV-1 infected HCEs treated with ER stress modulators; details: 0.1 MOI HSV-1 K26RFP, 24 hpi, tunicamycin, thapsigargin, Brefeldin-A 1 μM, salubrinal 75 μM, PBA 10 mM
Experimental: Infected cells suspended in 5004 of Opti-MEM prior to sonication using a probe sonication system at 70% amplitude for 30 seconds. Sonicated cell lysates or ocular/vaginal swabs were used as inoculants for a plaque assay to determine the total amount of infectious virus. In a typical experiment, Vero cells were plated at a seating density of 5×10^4 per well in a 24 well plate overnight. Upon confluency, the cell monolayers were washed with PBS and infected samples were overlaid for a period of 2 h at multiple dilutions. The cells were then washed twice with PBS prior to the addition of DMEM mixed with 0.5% methylcellulose. The plates were incubated for 72 h at 37° C. and 5% CO2 before they were fixed with methanol and stained with crystal violet to determine the extent of plaque formation.
HCEs were infected with 0.1 MOI HSV-1 K26RFP and treated with tunicamycin (1 μM), thapsigargin (1 μM), Brefeldin-A (1 μM), salubrinal (75 μM) or PBA (10 mM). At 24 hpi, cells were imaged for the presence of fluorescent HSV-1 and cells were lysed and used as inoculum on Vero cells to assess viral titer via plaque assay (FIGS. 3A and 3B). […] HCEs infected and treated with PBA with various concentrations were collected 24 hpi and the lysates from these cells were used as inoculum on Vero cells to determine a concentration dependent viral inhibition via a plaque assay (FIG. 3E).

[4] = system: HSV; assay: Viral protein synthesis in HSV infected cells (immunoblotting); details: in vitro
Experimental: Cells were scraped and incubated with 1004 of Radioimmunoprecipitation assay (RIPA) buffer with protease phosphatase inhibitor cocktail (Halt™, 78440) for a period of 30 minutes on ice. Whole cell protein extracts (supernatant) were collected by centrifuging the mixture at 13,500 rpm on a bench top refrigerated (4° C.) centrifuge for 15 minutes. Protein samples were then denatured in NuPAGE LDS Sample Buffer (Invitrogen, NP00007) and 6-mercaptoethanol by heating them to 80° C. for 10 min. The denatured protein samples were allowed to cool and equal amounts of protein were added to 4-12% SDS-PAGE loading gels and run at a constant speed of 70V for 3 h. The protein from the gel was then transferred to a nitrocellulose membrane using an iBlot 2 dry transfer machine (Thermofisher Scientific, USA). Nitrocellulose membrane was blocked in 5% nonfat milk/BSA in tris buffer saline (TBS) and 0.1% tween 20 (TBST) for 1 h at room temperature. After the blocking step, membranes were incubated with primary antibody at dilutions of 1:1000 overnight at 4° C. The following day the blots were washed multiple times with TBST before the addition of horse radish peroxidase conjugated secondary IgG antibody at dilutions of 1:10,000 at room temperature. […] The density of the bands was quantified using ImageQuant TL image analysis software (version: 7). GAPDH was measured as a loading control.

[5] = in vivo; cited from earlier work
[6] = system: HSV-1 infected HCEs; assay: Survival and syncytia of HSV-1 infected HCEs in cell culture; assay type: cell-based, human

Question: Which results are given for Nc1nc2c(ncn2COCCO)c(=O)[nH]1 [ACV, acyclovir]?
Answer: renal toxicity [1]: renal toxicity including acute kidney injury; appearance and behavior of infected mice [2]: look healthier with no behavioral changes

Question: Which “viral replication / viral infection in HSV-1 infected HCEs” value (from here on “viral replication / viral infection”) [3] does the source give for C[C@H]1CCC/C=C/[C@@H]2C[C@H](O)C[C@H]2[C@H](O)/C=C/C(=O)O1 [BA, Brefeldin-A] here?
Answer: inhibited viral replication

Question: With O=C([O-])CCCc1ccccc1.[Na+] [NaPBA, sodium 4-phenylbutanoate] as the molecule, how does the viral protein synthesis [4] read?
Answer: suppressed viral protein synthesis

Question: Which corneal toxicity [5] does the source give for O=c1[nH]c(=O)n([C@H]2C[C@H](O)[C@@H](CO)O2)cc1C(F)(F)F [TFT, trifluridine] here?
Answer: corneal toxicity including inflammation, dryness and pain

Question: Which “viral replication / viral infection” value [3] does the source give for C/C=C(/C)C(=O)O[C@H]1C(C)=C2[C@H]([C@@H]1OC(=O)CCCCCCC)[C@@](C)(OC(C)=O)C[C@H](OC(=O)CCC)[C@@]1(O)[C@H]2OC(=O)[C@@]1(C)O [TG, Thapsigargin] here?
Answer: inhibited viral replication

Question: With O=C(/C=C/c1ccccc1)NC(NC(=S)Nc1cccc2cccnc12)C(Cl)(Cl)Cl (stereo not drawn) [salubrinal] as the molecule, how does the “viral replication / viral infection” value [3] read?
Answer: increased viral replication

Question: And the “survival of the HSV-1 infected cell” value [6]?
Answer: form large syncytia and survive longer in cell culture; also recorded: increased survival of the cell

Question: For Tunicamycin [TM], which “viral replication / viral infection” value [3] is on record?
Answer: inhibited viral replication
